Source: patent US20240252456A1, “ORAL COMPOSITION, SKIN COSMETIC AND HAIR COSMETIC” (MARUZEN PHARMACEUTICALS CO., LTD., priority 2021, published 2024)

How the values were obtained:
[1] = test system: Mouse macrophage cells (RAW264.7); assay: Nitric oxide (NO) production suppressive action test; type: cell-based; settings: RAW264.7, LPS 1 μg/mL, 48 hours
Procedure: Mouse macrophage cells (RAW264.7) were cultured using Dulbecco's modified Eagle's medium (DMEM) containing 10% FBS, and then the cells were collected using a cell scraper. The collected cells were diluted with phenol red-free DMEM containing 10% FBS to a cell density of 3.0×10^6 cells/mL, then seeded with 100 μL per well in a 96-well plate, and cultured for 4 hours.
After culturing, the medium was removed, 100 μL of the test sample (Sample 1, see Table 26 below for final concentration) dissolved in phenol red-free DMEM containing DMSO at a final concentration of 0.5% and 10% FBS was added to each well, 100 μL of lipopolysaccharide (LPS, final concentration 1 μg/mL, E. coli 0111:B4, available from DIFCO) dissolved in phenol red-free DMEM containing 10% FBS was added, and culturing was performed for 48 hours. As a control, the LPS process was performed in the same manner using, as substitute for the test sample solution, phenol red-free DMEM containing DMSO at a final concentration of 0.5% and 10% FBS to which no sample was added.
The production amount of nitric oxide (NO) was measured using the amount of nitrite ions ([…]) as an index. After the culturing was completed, the same amount of Griess reagent (5 mass % phosphoric acid solution containing 1 mass % sulfanilamide and 0.1 mass % N-1-naphthyl ethylendiamine dihydrochloride) as the culture supernatant was added to the culture solution in each well and reacted for 10 minutes at room temperature. After the reaction, the absorbance at a wavelength of 540 nm was measured. The nitric oxide (NO) production suppression rate (%) was calculated by the following equation based on the nitric oxide (NO) production amount when no sample was added (control).
Terms in the equation represent the following respective ones. • A: NO amount with test sample addition • B: NO amount […]

[2] = test system: Rat basophil leukemia cells (RBL-2H3); assay: Hexosaminidase release suppressive action test; type: cell-based; settings: 500 μmol/L; RBL-2H3, DNP-specific IgE / DNP-BSA
Procedure: Rat basophil leukemia cells (RBL-2H3) were cultured using spinner modified Eagle's minimum essential medium (S-MEM) containing 15% FBS, and then the cells were collected by a trypsin treatment. The collected cells were diluted with S-MEM containing 15% FBS to a cell density of […], DNP-specific IgE was added to a final concentration of 0.5 μg/mL, and the cells were seeded with 100 μL per well in a 96-well plate and cultured overnight.
After culturing, the medium was removed and the cells were washed twice with 100 μL of Shiraganian buffer solution. […]
After the reaction was completed, 250 μL of 0.1 mol/L Na2CO3/NaHCO3 was added to each well, the absorbance at wavelengths of 415 nm and 650 nm was measured, and the value obtained by subtracting the absorbance at 650 nm from the absorbance at 415 nm was adopted as the corrected value. From the obtained measurement results, the hexosaminidase release suppression rate (%) was calculated using the following equation.
Terms in the equation represent the following respective ones. • A: Absorbance at wavelength 415-650 nm without sample addition • B: Absorbance at wavelength 415-650 nm with test sample addition

tyrosinase = assay: Tyrosinase activity inhibitory action test; type: biochemical
Procedure: In a 48-well plate, 0.2 mL of McIlvaine buffer solution (pH 6.8), 0.06 mL of 0.3 mg/mL tyrosine solution, and 0.18 mL of the test sample (Sample 3, see Table 4 below for final concentration) dissolved in 25% DMSO solution were added, and they were statically placed at 37° C. for 10 minutes. To this, 0.02 mL of 1000 units/mL tyrosinase solution was added, followed by reaction at 37° C. for 15 minutes. After the reaction was completed, the absorbance at a wavelength of 475 nm was measured. As a blank, the same operation and absorbance measurement were performed in the case in which no enzyme solution was added. Furthermore, as a control, the same measurement was performed in the case in which 25% DMSO solution was added without adding the sample solution. From the obtained measurement results, the tyrosinase activity inhibition rate (%) was calculated using the following equation. [formula] Terms in the equation represent the following respective ones. • A: Absorbance at wavelength 475 nm with test sample addition and enzyme addition • B: Absorbance at wavelength 475 nm with test sample addition and without enzyme addition • C: Absorbance at wavelength 475 nm without sample addition and with enzyme addition • D: Absorbance at wavelength 475 nm without sample addition and without enzyme addition

O=C(O)CCc1ccc(O)c(O)c1 [Sample 1, 3,4-Dihydroxyhydrocinnamic acid]
NO production suppression rate ([1]; 31.2 μmol/L): 14.9% | NO production suppression rate ([1]; 125 μmol/L): 49.4% | NO production suppression rate ([1]; 500 μmol/L): 77.8%

O=C(O)CCc1ccc(O)cc1 [Sample 2, 3-(4-Hydroxyphenyl)propionic acid]
Hexosaminidase release suppression rate [2]: 19.3%

O=C(O)CCc1ccccc1 [Sample 3, 3-phenylpropionic acid]
Tyrosinase activity inhibition rate (tyrosinase; 125 μmol/L): 4.4% | Tyrosinase activity inhibition rate (tyrosinase; 250 μmol/L): 9.6% | Tyrosinase activity inhibition rate (tyrosinase; 500 μmol/L): 15.2% | Tyrosinase activity inhibition rate (tyrosinase; 1000 μmol/L): 22.8%
